In patent US20250387331A1, “PROSTAGLANDIN ANALOGS AND METHODS FOR SUSTAINED GLAUCOMA MANAGEMENT” (Peregrine Ophthalmic PTE LTD, priority 2024, published 2025):

Experiments:
[1] = test system: rabbit eye; settings: in vivo
Description: OCT macula were captured at baseline, at week 1, and at 4 week intervals thereafter.
P values were calculated using a 2 tailed t-test.

[2] = test system: rabbit eye; assay: IOP after suprachoroidal liposomal latanoprost or daily topical latanoprost (Example 2); assay type: in vivo, Dutch-Belt rabbits; settings: daily eye drops 0.005% for two weeks
Description: A suprachoroidal injector (SupraMedical, Israel) was used that has a 30-gauge needle attached to an extension tubing connected to a 1 ml syringe. The length of the injector is adjusted by inputting readings of scleral thickness combined with a correction factor, supplied on a calibration table from the manufacturer. The scleral thickness was determined by ultrasound bio-microscopy (UBM). After the depth dial was set to the correct position, the plunger of the injector and the syringe were depressed simultaneously. Injections were delivered over 5-10 seconds. After the drug formulation or control was delivered, the plunger was released, and the injector gradually removed.
Rabbits receiving suprachoroidal injection had their scleral thickness measured with Optovue RTVue OCT. The thickness of the sclera was measured at 3 mm posterior to the corneoscleral junction. An average of three readings were taken to determine the mean scleral thickness. The length of the needle on the injector was subsequently calibrated by adding 300 μm to the mean scleral thickness. […]
Four Dutch-Belt rabbits (n=8 eyes) were used in this study. Baseline IOP was measured using a calibrated Tonopen XL® (Reichert Ophthalmic Instruments, Depew, NY). […] Animals were handled consistently to ensure stable IOP readings. […]
Three readings were taken for each eye and an average obtained. […]

- Mean retinal thickness [1]: 131.44 μm
SMILES: CC(C)OC(=O)CCC/C=C\C[C@@H]1[C@@H](CC[C@@H](O)CCc2ccccc2)[C@H](O)C[C@@H]1O [Topical latanoprost, latanoprost]
- maximum decrease in IOP [2]: 38%
